{
  "source": "patent US20130336940A1",
  "about": "“MODIFIED PIG ISLETS FOR DIABETES TREATMENT” (UNIVERSITE CATHOLIQUE DE LOUVAIN, priority 2011, published 2013)",
  "key": {"pig pancreas": {"tested_on": "pig pancreas", "assay": "Pancreatic hormonal content for insulin/glucagon (RIA) after STZ", "assay_type": "in vivo", "description": "Five doses (0, 30, 50, 75, 100 mg/kg) of filter-sterilized Streptozotocin (STZ) (Sigma, Bornem, Belgium) were tested. STZ was solubilised in citrate buffer (25% v/v Na citrate, 23% v/v citric acid, 52% v/v H2O, pH 4.5) and filtered before injection in the external jugular vein (Dufrane, Transplantation, 2006).\nFor pancreatic hormonal content, insulin and glucagon were first extracted from small biopsies of pancreas taken in the 3 zones (head, body, tail) before being quantified by radio immuno assay (RIA).\nFor the extraction, ˜1 g of pancreas was cut into small fragments (˜1-2 mm^3) and 5 mL of a solution composed of 75.75% CH3CH2OH, 24.22% H2O, 0.03% HCl were added. The following steps were performed with the samples kept on ice. Samples were mixed (Ultra-Turrax T25 [Janke & Kunkel IKA—Labortechnik, Staufen, Germany]) for 20 seconds 4 times and 5 mL of a solution of 75% CH3CH2OH, 22% H2O, 3% HCl were added to the mixture. The samples were then sonicated 4×20 seconds (Sonifier B 12 [Branson Sonic Power Company, Danbury, Conn., USA]) and centrifugated 10 minutes at 4° C. at 1500 rpm. The first supernatant formed was removed and kept at −20° C. 2 mL of a solution of 75% CH3CH2OH, 23.5% H2O, 1.5% HCl were added to the precipitate and a second step of sonication was performed. The samples were then kept at −20° C. overnight. After a step of centrifugation 10 minutes at 4° C. at 1500 rpm, the second supernatant was removed and kept at −20° C. Thereafter, 2 mL of a solution of 75% CH3CH2OH, 23.5% H2O, 1.5% HCl were added to the precipitate and the mixture was sonicated and centrifuged 10 minutes at 4° C. at 1500 rpm and the third supernatant removed. The three supernatants were then pooled and constituted the pancreas extract. […] The supernatants were immediately removed and the contents of insulin and glucagon were determined by a Wallac Wizard 1470 Automatic gamma counter (GMI Inc, Ramsey, Minn., USA) for 1 minute."}, "isolated pig islets": {"tested_on": "isolated pig islets", "assay": "In vitro islet functionality (24 hr incubation at G5, G15, G15+Fsk; insulin/glucagon RIA)", "assay_type": "cell-based", "conditions": "for G15/G5 ratio of insulin secretion: native islets 1.16; for glucagon content, fold vs native islets: 50 mg/kg treated islets; for insulin secretion, fold vs 50 mg/kg treated islets / insulin secretion, fold vs native islets: islets from pigs treated with 30 mg/kg STZ; for glucagon secretion, fold in comparison to 0 mg/kg / glucagon secretion, fold in comparison to 30 mg/kg: islets from pigs treated with 50 mg/kg STZ", "description": "The following steps were performed with the samples kept on ice. […] The samples were then sonicated 4×20 seconds (Sonifier B 12 [Branson Sonic Power Company, Danbury, Conn., USA]) and centrifugated 10 minutes at 4° C. at 1500 rpm. The first supernatant formed was removed and kept at −20° C. […] The samples were then kept at −20° C. overnight. After a step of centrifugation 10 minutes at 4° C. at 1500 rpm, the second supernatant was removed and kept at −20° C. […] The three supernatants were then pooled and constituted the pancreas extract. Human insulin specific RIA KIT and Glucagon RIA KIT (Millipore, Billerica, Mass., USA) were used for the determination of the hormonal content in human/pig pancreatic extractions as well as in isolated islets (see below). The content of insulin and glucagon in the extracts was performed following the instructions of the manufacturer. […] After incubation overnight at room temperature, 1 mL of precipitating reagent were added, followed by incubation 20 minutes at 4° C. The samples were then centrifuged 20 minutes at 2000-3000×g at 4° C.\nThree replicates per concentration were performed. Media were thereafter recovered for insulin and glucagon quantification and islets were transferred in acid-ethanol for hormones extraction and quantification by radioimmuno-assay (see above)."}},
  "data": [
    {"smiles": "CN(N=O)C(=O)N[C@H]1C(O)O[C@H](CO)[C@@H](O)[C@@H]1O", "note": "(mixture of isomers) [STZ, Streptozotocin]", "values": [
      {"measurement": "theoretical reduction of the pancreatic insulin content", "setting": "pig pancreas; STZ 30 mg/kg, by linear regression", "value": 30, "unit": "%"},
      {"measurement": "pancreatic glucagon content, humans vs treated pigs", "setting": "pig pancreas; STZ 30/50/75 mg/kg, 3 months post-STZ treatment", "value": "higher in humans"},
      {"measurement": "pancreatic insulin content", "setting": "pig pancreas; STZ 75-100 mg/kg", "value": "significant reduction"},
      {"measurement": "stimulation index increase in comparison to native islets", "setting": "isolated pig islets; 30 mg/kg STZ", "value": 45, "unit": "%"},
      {"measurement": "G15/G5 ratio of insulin secretion", "setting": "isolated pig islets; 30 mg/kg STZ-treated islets", "value": 1.68},
      {"measurement": "insulin content, times more than native islets", "setting": "isolated pig islets; 30 mg/kg STZ, G5 stimulation", "value": 3.3, "unit": "times"},
      {"measurement": "insulin content, times more than native islets", "setting": "isolated pig islets; 30 mg/kg STZ, G15 stimulation", "value": 2.5, "unit": "times"},
      {"measurement": "stimulation index increase in comparison to native islets", "setting": "isolated pig islets; 50 mg/kg STZ", "value": 28, "unit": "%"},
      {"measurement": "G15/G5 ratio of insulin secretion", "setting": "isolated pig islets; 50 mg/kg STZ-treated islets", "value": 1.49},
      {"measurement": "insulin content, times higher than native islets", "setting": "isolated pig islets; 50 mg/kg STZ, G5 stimulation", "value": 1.5, "unit": "times"},
      {"measurement": "insulin secretion increase in comparison with native pig islets", "setting": "isolated pig islets; 50 mg/kg STZ, G5 stimulation", "value": 1.3, "unit": "times"},
      {"measurement": "insulin content, times higher than native islets", "setting": "isolated pig islets; 50 mg/kg STZ, G15 stimulation", "value": 1.4, "unit": "times"},
      {"measurement": "insulin secretion increase in comparison with native pig islets", "setting": "isolated pig islets; 50 mg/kg STZ, G15 stimulation", "value": 1.4, "unit": "times"},
      {"measurement": "glucagon content, fold vs native islets", "setting": "isolated pig islets; G5", "value": 7.9, "unit": "×"},
      {"measurement": "glucagon content, fold vs native islets", "setting": "isolated pig islets; G15 stimulation", "value": 10.4, "unit": "×"},
      {"measurement": "increase of the secretion of glucagon by isolated pig islets", "setting": "isolated pig islets; after 30-50 mg/kg STZ", "value": "1.3 to 3.0", "unit": "×"},
      {"measurement": "increase of insulin release", "setting": "isolated pig islets; islet remodeling with low doses of STZ", "value": "1.29 to 2.13", "unit": "×"},
      {"measurement": "glucagon content, times higher than native islets", "setting": "isolated pig islets; islets from 30 mg/kg treated pigs, G5-G15 stimulations", "value": 4.4, "unit": "times"},
      {"measurement": "insulin secretion, fold vs 50 mg/kg treated islets", "setting": "isolated pig islets; G5 stimulation", "value": 1.6, "unit": "×"},
      {"measurement": "insulin secretion, fold vs native islets", "setting": "isolated pig islets; G5 stimulation", "value": 2.1, "unit": "×"},
      {"measurement": "insulin secretion, fold vs 50 mg/kg treated islets", "setting": "isolated pig islets; G15 stimulation", "value": 1.5, "unit": "×"},
      {"measurement": "insulin secretion, fold vs native islets", "setting": "isolated pig islets; G15 stimulation", "value": 2.1, "unit": "×"},
      {"measurement": "glucagon secretion, fold in comparison to 0 mg/kg", "setting": "isolated pig islets; G5 stimulation", "value": 2.5, "unit": "×"},
      {"measurement": "glucagon secretion, fold in comparison to 30 mg/kg", "setting": "isolated pig islets; G5 stimulation", "value": 2.0, "unit": "×"},
      {"measurement": "glucagon secretion, fold in comparison to 0 mg/kg", "setting": "isolated pig islets; G15 stimulation", "value": 3.0, "unit": "×"},
      {"measurement": "glucagon secretion, fold in comparison to 30 mg/kg", "setting": "isolated pig islets; G15 stimulation", "value": 1.6, "unit": "×"}
    ]}
  ]
}
